According to US20240287138A1, “CYCLIC PEPTIDES FOR INHIBITING TNF RECEPTOR 1 ACTIVITY” (Merck Sharp & Dohme LLC, priority 2023, published 2024):
Numbered stars: 1 amine (or outer) side, 2 acyl side, 3 side chain; on linkers, the order of the positions; unused ones are H or OH. Bridge positions count the residues as written; N and C are the ends. Square brackets hold non-standard residues; d marks the D form. Peptide text beside a SMILES is read from it. * marks the point of attachment. Trp(βS-Me,7-OMe) = COc1cccc2c([C@H](C)[C@H](N)C(=O)O)c[nH]c12; X24 = O=C(O)c1ccc([C@@H](O)[C@H](N[*:1])C(=O)[*:2])cc1; Morpholine(3S-CO,6,6-Me2) = CC1(C)CN[C@H](C(=O)O)CO1; Trp(7-CN) = N#Cc1cccc2c(C[C@H](N)C(=O)O)c[nH]c12; Trp(7-Cl) = N[C@@H](Cc1c[nH]c2c(Cl)cccc12)C(=O)O; Phe(3-CONH2) = NC(=O)c1cccc(C[C@H](N)C(=O)O)c1; Phe(4-CONH2) = NC(=O)c1ccc(C[C@H](N)C(=O)O)cc1; Phe(4-COOH) = N[C@@H](Cc1ccc(C(=O)O)cc1)C(=O)O; 4Pal(3S-Me) = C[C@@H](c1ccncc1)[C@H](N)C(=O)O; Trp(7-aza) = N[C@@H](Cc1c[nH]c2ncccc12)C(=O)O; Pip(5R-OH) = O=C(O)[C@@H]1CC[C@@H](O)CN1; X1 = O=C([C@@H]1CC[C@H](N[*:1])C1)[*:2]; Isoxazole(3-carbonyl) = O=C(c1ccon1)*; Pip(4-aza) = O=C(O)[C@@H]1CNCCN1; hPhe = N[C@@H](CCc1ccccc1)C(=O)O; 4Pal = N[C@@H](Cc1ccncc1)C(=O)O; NMeE = CN[C@@H](CCC(=O)O)C(=O)O; dHyp = O=C(O)[C@H]1C[C@H](O)CN1; aThr = C[C@H](O)[C@H](N)C(=O)O; Ahp(2) = CCCCC[C@H](N)C(=O)O; αMeS = C[C@](N)(CO)C(=O)O; Carboxymethyl = O=C(O)C*; Nle = CCCC[C@H](N)C(=O)O; Dab = NCC[C@H](N)C(=O)O; Sar = CNCC(=O)O

Tests used:
[1] = molecular target: T1, human TNFR1 extracellular domain (ECD) protein (Homo sapiens, UniProt P19438); test: SPR binding affinity to captured human TNFR1 ECD
T1 construct: HRV 3C protease cleavage site (C); 6His (C, cleaved yes); made in house; host or cells: Sf21 insect cells (baculovirus), secreted
T1 sequence (P19438 30-211): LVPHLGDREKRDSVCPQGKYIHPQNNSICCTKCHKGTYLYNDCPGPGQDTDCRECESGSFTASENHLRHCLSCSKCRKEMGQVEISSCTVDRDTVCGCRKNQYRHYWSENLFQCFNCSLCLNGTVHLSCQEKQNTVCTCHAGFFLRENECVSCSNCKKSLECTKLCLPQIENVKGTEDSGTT
Outline: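 Peptides are tested against captured biotin-tagged human TNFR1 ECD, with parallel TNFR2 ECD binding to check selectivity. Buffer: 10 mM HEPES pH 7.4, 150 mM NaCl, 3 mM EDTA, 0.05% P20, 2% DMSO.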

[2] = molecular target: T2, TNFα-induced NF-κB signal transduction pathway (TNFR1 signaling) in THP-1 cells (Homo sapiens, UniProt P19438); test: THP-1 Lucia NF-κB reporter cell assay, inhibition of TNFα-induced NF-κB signaling; assay type: cell-based; conditions: THP-1 NF-κB Lucia reporter cells, 10 ng/mL TNFα, 16-18 h, secreted luciferase; read-out: THP-1 IC50
T2 sequence (P19438 30-455): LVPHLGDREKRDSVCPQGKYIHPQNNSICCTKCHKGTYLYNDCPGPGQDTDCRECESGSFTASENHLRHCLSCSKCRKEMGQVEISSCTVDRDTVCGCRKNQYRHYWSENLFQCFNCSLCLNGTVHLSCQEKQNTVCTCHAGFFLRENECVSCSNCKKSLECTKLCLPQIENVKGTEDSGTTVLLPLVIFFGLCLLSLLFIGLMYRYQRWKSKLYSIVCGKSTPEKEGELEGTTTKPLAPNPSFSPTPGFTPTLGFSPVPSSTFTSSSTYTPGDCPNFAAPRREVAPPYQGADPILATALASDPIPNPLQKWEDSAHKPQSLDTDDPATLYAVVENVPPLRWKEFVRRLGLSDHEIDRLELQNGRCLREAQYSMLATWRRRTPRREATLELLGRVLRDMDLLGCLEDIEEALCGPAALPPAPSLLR
Outline: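 THP-1 Lucia NF-κB cells, 20k/well, no selection antibiotics; peptide pre-inc 1 h 37 °C; + recombinant human TNFα 10 ng/mL final; o.n.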

Row | SMILES | Kd [1] | IC50 [2]
1 | COc1cccc2c([C@H](C)[C@@H]3NC(=O)CN(C)C(=O)[C@H](Cc4cccc(C(N)=O)c4)NC(=O)[C@H](Cc4ccc(C(N)=O)cc4)NC(=O)[C@](C)(CO)NC(=O)[C@H](Cc4c[nH]c5c(Cl)cccc45)NC(=O)[C@H](Cc4ccncc4)NC(=O)[C@H](CC(N)=O)NC(=O)[C@H]4C[C@H](O)CN4C(=O)[C@H](Cc4c[nH]c5ccccc45)NC(=O)[C@@H]4CC[C@@H](O)CN4C(=O)[C@H](Cc4ccncc4)NC(=O)[C@H](CCNC(=O)c4ccon4)NC(=O)[C@@H]4CC[C@@H](C4)NC3=O)c[nH]c12 [SEQ ID NO. 169] (cyclo([4Pal][Trp(7-Cl)][αMeS][Phe(4-CONH2)][Phe(3-CONH2)][Sar][Trp(βS-Me,7-OMe)][X1][Dab](Isoxazole(3-carbonyl))[4Pal][Pip(5R-OH)]W[dHyp]N)) | 0.08 nM | 0.6 nM
2 | CCCC[C@@H]1NC(=O)CSC[C@@H](C(N)=O)NC(=O)[C@H]([C@@H](C)c2c[nH]c3c(OC)cccc23)NC(=O)CN(C)C(=O)[C@H](Cc2ccc(O)cc2)NC(=O)[C@H](Cc2ccc(C(=O)O)cc2)NC(=O)[C@](C)(CO)NC(=O)[C@H](Cc2c[nH]c3c(Cl)cccc23)NC(=O)[C@H](Cc2ccncc2)NC(=O)[C@H](CC(N)=O)NC(=O)[C@H](CCC(=O)O)N(C)C(=O)[C@H](Cc2c[nH]c3ncccc23)NC(=O)[C@@H]2CNCCN2C(=O)[C@H](CCc2ccccc2)NC1=O [SEQ ID NO. 172] ({CH2CO}-[Nle][hPhe][Pip(4-aza)][Trp(7-aza)][NMeE]N[4Pal][Trp(7-Cl)][αMeS][Phe(4-COOH)]Y[Sar][Trp(βS-Me,7-OMe)]C-NH2; thioether N-14) | 0.2 nM | 3.9 nM
3 | CCCCC[C@@H]1NC(=O)[C@@H]2CC[C@@H](C2)NC(=O)[C@H]([C@@H](C)c2c[nH]c3c(OC)cccc23)NC(=O)CN(C)C(=O)[C@H](Cc2cccc(C(N)=O)c2)NC(=O)[C@H](Cc2ccc(C(N)=O)cc2)NC(=O)[C@](C)(CO)NC(=O)[C@H](Cc2c[nH]c3c(C#N)cccc23)NC(=O)[C@H](Cc2ccncc2)NC(=O)[C@H](CC(N)=O)NC(=O)[C@H]2C[C@H](O)CN2C(=O)[C@H](Cc2c[nH]c3ccccc23)NC(=O)[C@@H]2CNCCN2C(=O)[C@H](Cc2ccncc2)NC1=O [SEQ ID NO. 174] (cyclo([4Pal][Trp(7-CN)][αMeS][Phe(4-CONH2)][Phe(3-CONH2)][Sar][Trp(βS-Me,7-OMe)][X1][Ahp(2)][4Pal][Pip(4-aza)]W[dHyp]N)) | 0.01 nM | 0.7 nM
4 | CCCC[C@@H]1NC(=O)CSC[C@@H](C(N)=O)NC(=O)[C@H]([C@@H](C)c2c[nH]c3c(OC)cccc23)NC(=O)CN(C)C(=O)[C@H](Cc2ccc(O)cc2)NC(=O)[C@H](Cc2ccc(C(=O)O)cc2)NC(=O)[C@](C)(CO)NC(=O)[C@H](Cc2c[nH]c3c(Cl)cccc23)NC(=O)[C@H](Cc2ccc(OCC(=O)O)cc2)NC(=O)[C@H](CC(N)=O)NC(=O)[C@H](CCC(=O)O)N(C)C(=O)[C@H](Cc2c[nH]c3ccccc23)NC(=O)[C@@H]2COC(C)(C)CN2C(=O)[C@H](Cc2ccncc2)NC1=O [SEQ ID NO. 179] ({CH2CO}-[Nle][4Pal][Morpholine(3S-CO,6,6-Me2)]W[NMeE]NY(Carboxymethyl)[Trp(7-Cl)][αMeS][Phe(4-COOH)]Y[Sar][Trp(βS-Me,7-OMe)]C-NH2; thioether N-14) | 0.14 nM | 2.4 nM
5 | CCCC[C@@H]1NC(=O)CSC[C@@H](C(N)=O)NC(=O)[C@H]([C@@H](C)c2c[nH]c3c(OC)cccc23)NC(=O)CN(C)C(=O)[C@H](Cc2ccc(O)cc2)NC(=O)[C@H](Cc2ccc(C(=O)O)cc2)NC(=O)[C@](C)(CO)NC(=O)[C@H](Cc2c[nH]c3c(Cl)cccc23)NC(=O)[C@H](Cc2ccncc2)NC(=O)[C@H](CC(N)=O)NC(=O)[C@H](CCC(=O)O)N(C)C(=O)[C@H](Cc2c[nH]c3ncccc23)NC(=O)[C@H](CO)NC(=O)[C@H]([C@@H](C)c2ccncc2)NC1=O [SEQ ID NO. 180] ({CH2CO}-[Nle][4Pal(3S-Me)]S[Trp(7-aza)][NMeE]N[4Pal][Trp(7-Cl)][αMeS][Phe(4-COOH)]Y[Sar][Trp(βS-Me,7-OMe)]C-NH2; thioether N-14) | 0.05 nM | 2 nM
6 | CCCC[C@@H]1NC(=O)[C@@H]2CC[C@@H](C2)NC(=O)[C@H]([C@@H](C)c2c[nH]c3c(OC)cccc23)NC(=O)CN(C)C(=O)[C@H](Cc2ccc(C(=O)O)cc2)NC(=O)[C@H](Cc2ccc(C(N)=O)cc2)NC(=O)[C@](C)(CO)NC(=O)[C@H](Cc2c[nH]c3c(Cl)cccc23)NC(=O)[C@H](Cc2ccncc2)NC(=O)[C@H]([C@H](C)O)NC(=O)[C@H]2C[C@H](O)CN2C(=O)[C@H](Cc2c[nH]c3ccccc23)NC(=O)[C@@H]2CC[C@@H](O)CN2C(=O)[C@H](Cc2ccncc2)NC1=O [SEQ ID NO. 187] (cyclo([4Pal][Trp(7-Cl)][αMeS][Phe(4-CONH2)][Phe(4-COOH)][Sar][Trp(βS-Me,7-OMe)][X1][Nle][4Pal][Pip(5R-OH)]W[dHyp][aThr])) | 0.04 nM | 0.5 nM
7 | CCCC[C@@H]1NC(=O)[C@@H]2CC[C@@H](C2)NC(=O)[C@H]([C@@H](C)c2c[nH]c3c(OC)cccc23)NC(=O)CN(C)C(=O)[C@H]([C@H](O)c2ccc(C(=O)O)cc2)NC(=O)[C@H](Cc2ccc(C(N)=O)cc2)NC(=O)[C@](C)(CO)NC(=O)[C@H](Cc2c[nH]c3c(Cl)cccc23)NC(=O)[C@H](Cc2ccncc2)NC(=O)[C@H](CC(N)=O)NC(=O)[C@H]2C[C@H](O)CN2C(=O)[C@H](Cc2c[nH]c3ccccc23)NC(=O)[C@@H]2CC[C@@H](O)CN2C(=O)[C@H](Cc2ccncc2)NC1=O [SEQ ID NO. 188] (cyclo([4Pal][Trp(7-Cl)][αMeS][Phe(4-CONH2)][X24][Sar][Trp(βS-Me,7-OMe)][X1][Nle][4Pal][Pip(5R-OH)]W[dHyp]N)) | 0.03 nM | 0.8 nM
8 | CCCC[C@@H]1NC(=O)[C@@H]2CC[C@@H](C2)NC(=O)[C@H]([C@@H](C)c2c[nH]c3c(OC)cccc23)NC(=O)CN(C)C(=O)[C@H](Cc2ccc(C(N)=O)cc2)NC(=O)[C@H](Cc2ccc(C(N)=O)cc2)NC(=O)[C@](C)(CO)NC(=O)[C@H](Cc2c[nH]c3c(Cl)cccc23)NC(=O)[C@H](Cc2ccncc2)NC(=O)[C@H](CC(N)=O)NC(=O)[C@H](CCC(=O)O)N(C)C(=O)[C@H](Cc2c[nH]c3ncccc23)NC(=O)[C@@H]2CC[C@@H](O)CN2C(=O)[C@H](Cc2ccncc2)NC1=O [SEQ ID NO. 189] (cyclo([4Pal][Trp(7-Cl)][αMeS][Phe(4-CONH2)][Phe(4-CONH2)][Sar][Trp(βS-Me,7-OMe)][X1][Nle][4Pal][Pip(5R-OH)][Trp(7-aza)][NMeE]N)) | 0.1 nM | 0.6 nM
9 | CCCCC[C@@H]1NC(=O)[C@@H]2CC[C@@H](C2)NC(=O)[C@H]([C@@H](C)c2c[nH]c3c(OC)cccc23)NC(=O)CN(C)C(=O)[C@H](Cc2ccc(OC)cc2)NC(=O)[C@H](Cc2ccc(C(N)=O)cc2)NC(=O)[C@](C)(CO)NC(=O)[C@H](Cc2c[nH]c3c(C#N)cccc23)NC(=O)[C@H](Cc2ccncc2)NC(=O)[C@H](CC(N)=O)NC(=O)[C@H]2C[C@H](O)CN2C(=O)[C@H](Cc2c[nH]c3ccccc23)NC(=O)[C@@H]2CNCCN2C(=O)[C@H](Cc2ccncc2)NC1=O [SEQ ID NO. 200] (cyclo([4Pal][Trp(7-CN)][αMeS][Phe(4-CONH2)]Y(Me)[Sar][Trp(βS-Me,7-OMe)][X1][Ahp(2)][4Pal][Pip(4-aza)]W[dHyp]N)) | 0.02 nM | 1 nM
10 | CCCC[C@@H]1NC(=O)CSC[C@@H](C(N)=O)NC(=O)[C@H]([C@@H](C)c2c[nH]c3c(OC)cccc23)NC(=O)CN(C)C(=O)[C@H](Cc2ccc(O)cc2)NC(=O)[C@H](Cc2ccc(C(=O)O)cc2)NC(=O)[C@](C)(CO)NC(=O)[C@H](Cc2c[nH]c3c(Cl)cccc23)NC(=O)[C@H](Cc2ccncc2)NC(=O)[C@H](CC(N)=O)NC(=O)[C@H]2CCCN2C(=O)[C@H](Cc2c[nH]c3ccccc23)NC(=O)[C@@H]2CC[C@@H](O)CN2C(=O)[C@H](Cc2ccncc2)NC1=O [SEQ ID NO. 203] ({CH2CO}-[Nle][4Pal][Pip(5R-OH)]W[dP]N[4Pal][Trp(7-Cl)][αMeS][Phe(4-COOH)]Y[Sar][Trp(βS-Me,7-OMe)]C-NH2; thioether N-14) | 0.1 nM | 1.6 nM
